Assays:
[1] = tested on: TRZAWR (Wheat, Winter, cv Riband); test: Preemergence herbicidal evaluation; format: in vivo, Triticum aestivum; conditions: rated 4-5 weeks after treatment
Outline: (§1)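 Seeds planted in potting soil cups and sprayed preemergence with aqueous acetone compound solution. Greenhouse-grown; rated 4–5 weeks after treatment on a 0-9 visual scale (stand, vigor, malformation, size, chlorosis, appearance) versus control.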

ORYSAT (Rice, Tebonnet) [2] = test: Flooded paddy, post-transplant rice tolerance; format: in vivo, Oryza sativa, (L.) Tebonnet; conditions: flooded paddy, post-transplant rice, rated 3-4 weeks after treatment, 0-9 rating scale
Outline: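 Two ten-day-old Tebonnet rice seedlings transplanted into silt loam, then flooded with water held at 1.5–3 cm above soil; herbicide applied post-transplant. Plants kept in greenhouse and rated visually 0–9 versus untreated control for stand, vigor, malformation, size and chlorosis.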

[3] = tested on: TRZAWR (Wheat, Winter, cv Riband); test: Postemergence herbicidal evaluation; format: in vivo, Triticum aestivum; conditions: postemergence
Outline: (§2)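 Seedlings grown about two weeks in flats, sprayed, then kept under standard greenhouse care. Rated visually 4–5 weeks after treatment on a 0–9 scale (stand, vigour, malformation, size, chlorosis, overall appearance) relative to untreated control; repeat tests averaged.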

ZEAMX (Corn, Field) = test: Postemergence herbicidal evaluation; format: in vivo, Zea mays, L.; conditions: postemergence
Outline: as §2

[4] = tested on: SAGPY (Sagittaria pygmaea); test: Flooded paddy, preemergence weed control; format: in vivo, L.; conditions: rated 3-4 weeks after treatment, 0-9 rating scale
Outline: (§3)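 Seeds or propagules were planted in the top 0.5 cm of silt loam soil and kept flooded 1.5–3 cm above the surface throughout, then held in the greenhouse. Injury was rated visually on a 0–9 scale against untreated controls, covering stand, vigor, malformation, size and chlorosis.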

[5] = tested on: CASOB (Cassia obtusifolia); test: Preemergence herbicidal evaluation; format: in vivo, L.; conditions: rated 4-5 weeks after treatment
Outline: as §1

[6] = tested on: CHEAL (Chenopodium album); test: Preemergence herbicidal evaluation; format: in vivo, L.; conditions: rated 4-5 weeks after treatment
Outline: as §1

[7] = tested on: AMBEL (Ambrosia artemisifolia); test: Preemergence herbicidal evaluation; format: in vivo, L.; conditions: rated 4-5 weeks after treatment
Outline: as §1

ORYSAT (Rice, Tebonnet) [8] = test: Preemergence herbicidal evaluation; format: in vivo, Oryza sativa, (L.) Tebonnet; conditions: rated 4-5 weeks after treatment
[9] = tested on: ABUTH (Abutilon theophrasti); test: Postemergence herbicidal evaluation; format: in vivo, Medic.; conditions: postemergence
Outline: as §2

[10] = tested on: ECHCG (Echinochloa crus-galli); test: Postemergence herbicidal evaluation; format: in vivo, (L.) Beau; conditions: postemergence
Outline: as §2

[11] = tested on: IPOHE (Ipomoea hederacea); test: Postemergence herbicidal evaluation; format: in vivo, (L.) Jacq.; conditions: postemergence
Outline: as §2

[12] = tested on: ABUTH (Abutilon theophrasti); test: Preemergence herbicidal evaluation; format: in vivo, Medic.; conditions: rated 4-5 weeks after treatment
[13] = tested on: CASOB (Cassia obtusifolia); test: Postemergence herbicidal evaluation; format: in vivo, L.; conditions: postemergence
Outline: as §2

[14] = tested on: CHEAL (Chenopodium album); test: Postemergence herbicidal evaluation; format: in vivo, L.; conditions: postemergence
Outline: as §2

[15] = tested on: AMBEL (Ambrosia artemisifolia); test: Postemergence herbicidal evaluation; format: in vivo, L.; conditions: postemergence
Outline: as §2

ORYSAT (Rice, Tebonnet) [16] = test: Postemergence herbicidal evaluation; format: in vivo, Oryza sativa, (L.) Tebonnet; conditions: postemergence
Outline: as §2

[17] = tested on: ECHORC (Echinochloa oryzoides); test: Flooded paddy, preemergence weed control; format: in vivo, Echinochloa oryzoides (Ard.) Fritsch.; conditions: rated 3-4 weeks after treatment, 0-9 rating scale
Outline: as §3

Cn1c(C(F)(F)F)cc(=O)n(-c2ccc3snc(-c4ccco4)c3c2)c1=O [Compound 60, 3-[3-(2-furyl)-1,2-benzisothiazol-5-yl]-1-methyl-6-(trifluoromethyl)uracil]
Preemergence herbicidal rating TRZAWR ([1]; Rate 0.0620 kg/ha): 1.0 | Preemergence herbicidal rating TRZAWR ([1]; Rate 0.1250 kg/ha): 4.0 | Preemergence herbicidal rating TRZAWR ([1]; Rate 0.2500 kg/ha): 6.0 | herbicidal rating, ORYSAT (rice tolerance) (ORYSAT (Rice, Tebonnet) [2]; rate 0.0080 kg/ha): 0.0 | herbicidal rating, ORYSAT (rice tolerance) (ORYSAT (Rice, Tebonnet) [2]; rate 0.0320 kg/ha): 1.5 | herbicidal rating, ORYSAT (rice tolerance) (ORYSAT (Rice, Tebonnet) [2]; rate 0.1250 kg/ha): 2.5 | TRZAWR herbicidal rating ([3]; rate 0.0320 kg/ha): 4.0 | TRZAWR herbicidal rating ([3]; rate 0.0620 kg/ha): 4.5 | ZEAMX herbicidal rating (ZEAMX (Corn, Field); rate 0.0320 kg/ha): 5.5 | ZEAMX herbicidal rating (ZEAMX (Corn, Field); rate 0.0620 kg/ha): 6.0 | herbicidal rating, SAGPY ([4]; rate 0.0080 kg/ha): 0.0 | herbicidal rating, SAGPY ([4]; rate 0.0320 kg/ha): 0.0 | herbicidal rating, SAGPY ([4]; rate 0.1250 kg/ha): 2.5 | Preemergence herbicidal rating CASOB ([5]; Rate 0.0620 kg/ha): 0.0 | Preemergence herbicidal rating CASOB ([5]; Rate 0.1250 kg/ha): 0.0 | Preemergence herbicidal rating CASOB ([5]; Rate 0.2500 kg/ha): 0.0 | Preemergence herbicidal rating CHEAL ([6]; Rate 0.0620 kg/ha): 7.0 | Preemergence herbicidal rating CHEAL ([6]; Rate 0.1250 kg/ha): 9.0 | Preemergence herbicidal rating CHEAL ([6]; Rate 0.2500 kg/ha): 9.0 | Preemergence herbicidal rating AMBEL ([7]; Rate 0.0620 kg/ha): 0.0 | Preemergence herbicidal rating AMBEL ([7]; Rate 0.1250 kg/ha): 5.0 | Preemergence herbicidal rating AMBEL ([7]; Rate 0.2500 kg/ha): 9.0 | Preemergence herbicidal rating ORYSAT (ORYSAT (Rice, Tebonnet) [8]; Rate 0.0620 kg/ha): 1.0 | Preemergence herbicidal rating ORYSAT (ORYSAT (Rice, Tebonnet) [8]; Rate 0.1250 kg/ha): 4.0 | Preemergence herbicidal rating ORYSAT (ORYSAT (Rice, Tebonnet) [8]; Rate 0.2500 kg/ha): 6.0 | ABUTH herbicidal rating ([9]; rate 0.0320 kg/ha): 9.0 | ABUTH herbicidal rating ([9]; rate 0.0620 kg/ha): 9.0 | ECHCG herbicidal rating ([10]; rate 0.0320 kg/ha): 2.0 | ECHCG herbicidal rating ([10]; rate 0.0620 kg/ha): 2.0 | IPOHE herbicidal rating ([11]; rate 0.0320 kg/ha): 9.0 | IPOHE herbicidal rating ([11]; rate 0.0620 kg/ha): 9.0 | Preemergence herbicidal rating ABUTH ([12]; Rate 0.0620 kg/ha): 5.0 | Preemergence herbicidal rating ABUTH ([12]; Rate 0.1250 kg/ha): 5.0 | Preemergence herbicidal rating ABUTH ([12]; Rate 0.2500 kg/ha): 9.0 | CASOB herbicidal rating ([13]; rate 0.0320 kg/ha): 1.0 | CASOB herbicidal rating ([13]; rate 0.0620 kg/ha): 4.0 | CHEAL herbicidal rating ([14]; rate 0.0320 kg/ha): 6.0 | CHEAL herbicidal rating ([14]; rate 0.0620 kg/ha): 5.0 | AMBEL herbicidal rating ([15]; rate 0.0320 kg/ha): 9.0 | AMBEL herbicidal rating ([15]; rate 0.0620 kg/ha): 9.0 | ORYSAT herbicidal rating (ORYSAT (Rice, Tebonnet) [16]; rate 0.0320 kg/ha): 3.5 | ORYSAT herbicidal rating (ORYSAT (Rice, Tebonnet) [16]; rate 0.0620 kg/ha): 4.0 | herbicidal rating, ECHORC ([17]; rate 0.0080 kg/ha): 1.5 | herbicidal rating, ECHORC ([17]; rate 0.0320 kg/ha): 4.0 | herbicidal rating, ECHORC ([17]; rate 0.1250 kg/ha): 7.0

— US6706663B2, “Herbicidal 3-heterocyclic substituted benzisothiazole and benzisoxazole compounds” (Wyeth, priority 2000, dated 2004)
